{
  "source": "patent US8461389B2",
  "about": "“Psycho-pharmaceuticals” (University College Dublin, National University of Ireland, …, priority 2008, dated 2013)",
  "key": {"[1]": {"biological_target": "T1, Sigma 2 receptor (Homo sapiens, UniProt Q5BJF2)", "T1 construct": "Novascreen (contract screen)", "T1 sequence (Q5BJF2 whole entry, species assumed)": "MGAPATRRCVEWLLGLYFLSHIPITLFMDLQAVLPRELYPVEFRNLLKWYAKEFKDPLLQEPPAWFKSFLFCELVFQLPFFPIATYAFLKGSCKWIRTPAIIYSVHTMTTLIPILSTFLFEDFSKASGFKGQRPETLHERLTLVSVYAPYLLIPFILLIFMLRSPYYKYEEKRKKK", "test": "Novascreen receptor affinity screen (competition with reference ligand), Sigma 2", "assay_type": "binding", "conditions": "1 μM Captodiamine competing with a reference ligand; read-out: percent target inhibition, Sigma 2 receptor", "procedure": "The Structure (FIG. 9A), receptor affinity (FIG. 9B), pharmacokinetics (FIG. 9C) and growth factor modulation (FIG. 9D) of Captodiamine are provided. Analysis of receptor affinities was performed by Novascreen™ and those displacing >20% of the natural ligand are indicated by the filled boxes. Blood levels of Captodiamine were determined by GC mass spectroscopy. In separate samples taken from a cannulated jugular at increasing time intervals following a single intraperitoneal injection of tha drug (5 mg/kg). Growth factor analysis was performed using tissue homogenates and ELISA assays specific for each growth factor (Promega). Values were analysed using a Student t-test and those with a p value<0.05 were accepted as significant and are indicated with an asterisk.\nThe higher the target inhibition value, the greater the affinity Captodiamine has for this particular receptor as it displaces a greater proportion of the reference ligand. This assay is an automated high throughput assay performed on cell lines that express only one type of receptor and was carried out by Novascreen (www.novascreen.com). Receptor affinity is a good starting point for determining the mechanism of action for a particular compound."}, "[2]": {"system": "C57B16 mice", "test": "Open-field test", "assay_type": "in vivo", "conditions": "3 and 5 mg/kg i.p. once daily for 7 days; FIG. 3", "excerpt": "The open field test is designed to measure behavioural responses such as locomotor activity, hyperactivity, and exploratory behaviors. Open field is also used as a measure of anxiety. Rats and mice tend to avoid brightly illuminated, novel, open spaces, so the open field environment acts as an anxiogenic stimulus and allows for measurement of anxiety-induced locomotor activity and exploratory behaviors. Like the elevated maze test described below, open field testing is a one trial test with little or no impact on the animal's subsequent behavior. The apparatus for the open field test was a square (100 cm by 100 cm) made of white Perspex. Each rat is placed in a corner of the field and its behavior recorded for five minutes. All activity is recorded by a video camera mounted above the open field and scored in real-time (or digitized and scored later) by the advanced motion-recognition software package Ethovision by Noldus, that detects and analyzes the movements of the rat or mouse. The total distance, average speed, rearing/elongation behavior, and time spent in various parts of the field (such as, for example, the border areas vs. the open, middle area) is measured and analysed. Testing is carried out in a temperature, noise and light controlled room.\nThe Experimental protocol employed in the behavioural evaluation of Captodiamine is outlined in FIG. 7. […]"}, "[3]": {"system": "C57B16 mice", "test": "Novel object recognition (NOR) test", "assay_type": "in vivo", "excerpt": "Before training the animals with objects, they are first allowed to acclimatize to the testing environment, a white Perspex box (30 cm by 20 cm) equipped with an overhead camera. After an acclimation session, the animals are ready for the training stage. This stage involves the introduction of two identical objects (Lego Duplo) to the environment before allowing the rodent to explore for a period of five minutes: Following the training period, the rodent is removed from the environment for a delay period which can range from 5 minutes to 24 hours, depending on the type of memory being tested. After the delay, the rodent is returned to the arena, where one of the original objects has been replaced by a new one, such as a glass container.\nThe amount of time that the rodents spends exploring each object can be calculated by hand or by using a computer program receiving input from the overhead camera. The literature describes a variety of methods for analyzing results. One technique involves dividing the time spent exploring the novel object by the total time spent exploring either object, yielding % novel exploration. An alternative technique is used to calculate the discrimination ratio, defined as the difference in exploration time for the objects divided by total exploration time. The method of analysis should be suited to the specific experimental setup. […]"}, "[4]": {"system": "GDNF (Glial cell derived neurotrophic factor)", "test": "GDNF levels in brain regions by ELISA after sub-chronic administration", "assay_type": "in vivo, mice", "conditions": "sub-chronic 7 day treatment, FIG. 9D", "procedure": "Neurotrophic factor concentration was determined by using an ELISA purchased from Promega Inc;\nThe Experimental protocol employed in the behavioural evaluation of Captodiamine is set out as follows: Three separate cohorts of C57B16 mice were employed in the behavioural evaluation of Captodiamine (see FIG. 7). Cohort 1 was used to evaluate the drug effect on prepulse inhibition, spatial learning, open-field and novel object recognition. Cohort 2 was used to evaluate drug effects on the forced swim test and the elevated X-maze. The behavioural tests were administered in sequence as per day number indicated in the bar of FIG. 7. The drug was administered by the intraperitoneal route and on the day of training the drug was administered after the behavioural analysis. […]\nThe Structure (FIG. 9A), receptor affinity (FIG. 9B), pharmacokinetics (FIG. 9C) and growth factor modulation (FIG. 9D) of Captodiamine are provided. […] Blood levels of Captodiamine were determined by GC mass spectroscopy. […] Values were analysed using a Student t-test and those with a p value<0.05 were accepted as significant and are indicated with an asterisk."}},
  "data": [
    {"smiles": "CCCCSc1ccc(C(SCCN(C)C)c2ccccc2)cc1", "note": "(stereo not shown) [Captodiamine, 2-[(4-butylsulfanylphenyl)-phenyl-methyl]sulfanyl-N,N-dimethyl-ethanamin]", "values": [
      {"measurement": "inhibition at 1 µM", "setting": "[1]", "result": "> 20", "unit": "%"},
      {"measurement": "basal locomotion in the open-field paradigm", "setting": "[2]", "result": "no influence on basal locomotion"},
      {"measurement": "time spent in the centre of the open-field arena", "setting": "[2]", "result": "significantly more time in the centre"},
      {"measurement": "time investigating objects during the training phase, Novel Object Recognition Task", "setting": "[3]; 3 mg/kg dose, one-tailed t-test", "result": "significantly longer investigating objects"},
      {"measurement": "time exploring objects in training (day 1) and testing (day 2) phases, NOR", "setting": "[3]; FIG. 8 right hand panel", "result": "more time exploring objects"},
      {"measurement": "GDNF expression levels, hypothalamus", "setting": "[4]", "result": "but not in either the hippocampus or the hypothalamus"},
      {"measurement": "GDNF expression levels, prefrontal cortex", "setting": "[4]", "result": "significantly decreased"}
    ]}
  ]
}
